Results on one compound are retold here after patent publication US9005677B2, “Autophagy enhancer for treatment of neurodegenerative diseases” (Macau University of Science and Technology, priority 2013, dated 2015).

Entries after “also recorded” stand apart in the source; their conditions may differ.

Series [1] has as its system EGFP-HDQ74 inclusions in PC12 cells. The experiment in a line: Mutant huntingtin aggregates in PC12, fluorescence microscopy. It is filed as cell-based, rat. To be noted: immunocytochemistry. The procedure: Quantification of mutant huntingtin aggregates in PC12, Atg7 wild type and deficient MEFs. In brief, both EGFP-HDQ74 transfected PC12, Atg7 wild-type and deficient mouse embryonic fibroblasts (MEFs) grown on coverslips in a 6-well plate were treated with indicated concentrations of Onjisaponin B. The cells were then fixed in 4% paraformaldehyde for 20 minutes at room temperature and then rinsed with PBS. Slides were mounted with FluorSave™ mounting media (Calbiochem, San Diego, Calif.) and examined by fluorescence microscopy. The number of cells with GFP-aggregates formation was examined under the Nikon ECLIPSE 80i microscope. Representative images were captured with CCD digital camera Spot RT3™ (Diagnostic Instruments, Inc., Melville, N.Y.). To quantify the clearance of mutant huntingtin, the percentage of cells with GFP-aggregates was calculated by counting the number of the cells with punctate GFP-LC3 fluorescence in GFP-positive cells. A minimum of 150 cells from 3 randomly selected fields was scored.

Series [2] addresses T1, α-synuclein oligomerization in HeLa cells transfected with GNS and SGC (Homo sapiens, UniProt P37840).
T1 construct: expressed in transfected cells; host or cells: HeLa cells
The experiment in a line: Bimolecular fluorescence complementation (BiFC) assay. Format: cell-based. To be noted: 24 hours at 30° C. The procedure: Bimolecular fluorescence complementation (BiFC) assay. In brief, HeLa cells transfected with both GFP-N terminal-α-synuclein (GNS) and α-synuclein-GFP-C terminal (SGC) plasmids were incubated at 37° C. for 4 hours. Then, the transfected cells were incubated with different concentrations of Radix Polygalae ethanol extract or Onjisaponin B for a further 24 hours at 30° C.. Fluorescent signals upon complete GFP fluorophore reconstitution in cells were then detected by flow analysis.
Results: By using the bimolecular fluorescence complementation (BiFC) assay, the oligomerization of α-synuclein in living cells can be directly quantified. In brief, α-synuclein proteins fused with two different non-fluorescent GFP terminal fragments, (i) GFP-N terminal-α-synuclein (GNS) or (ii) α-synuclein-GFP-C terminal (SGC) respectively were used. Upon oligomerization of α-synuclein, the two non-fluorescent fractions of GFP will therefore reconstitute the complete GFP fluorophore and transmit GFP fluorescent signal within cells. This signal in turn can be quantified by flow cytometry analysis.

The test system of series [3] is mutant A53T α-synuclein in doxycycline inducible PC 12 cell line. Put plainly: Clearance of mutant A53T α-synuclein, immunoblotting against myc tag. To be noted: PC 12 cells, 24 hours after doxycycline removal. It is filed as cell-based, rat. The procedure: Removal of mutant huntingtin and mutant α-synuclein. PC 12 cells were transfected transiently with EGFP-HDQ74 plasmids for 24 hours using Lipofectamine Plus LTX reagent (Invitrogen) according to the manufacturer's protocol. The transfected cells were then treated with Onjisaponin B for 24 hours. The removal of mutant huntingtin, EGFP-HDQ74, was then quantitated by immunoblotting with antibody against EGFP. To measure the clearance of α-synuclein in cellular model, the overexpression of mutant A53T α-synuclein was first induced by the addition of doxycycline (1 μg/ml) (Sigma) for 24 hours, by using the doxycycline inducible PC 12 cell line transfected with A53T α-synuclein plasmid. The expression of mutant A53T α-synuclein was then switched off by removing doxycycline from medium. Cells were then incubated with Onjisaponin B for a further 24 hours. The clearance of mutant α-synuclein was then measured by immunoblotting with antibody against myc tag.

Series [4] concerns PC12 cells expressing GFP-LC3. The experiment in a line: GFP-LC3 puncta in the presence of specific inhibitors. It is filed as cell-based, rat. To be noted: 12 hours. On the procedure: Quantification of Onjisaponin B-mediated autophagy in the presence of specific inhibitors. GFP-LC3 puncta formation was quantified as described previously. In brief, PC12 cells expressing GFP-LC3 were treated with Onjisaponin B (Onji, 25 μM) in the presence of AMPK inhibitor (compound C) (CC, 5 μM) or 3-Methyladenine (3-MA, 5 mM) for 12 hours. The cells were then fixed in 4% paraformaldehyde for 20 minutes at room temperature and then rinsed with PBS. Slides were mounted with FluorSave™ mounting media (Calbiochem) and examined by fluorescence microscopy. To quantify for autophagy, the percentage of cells with punctate GFP-LC3 fluorescence was calculated by counting the number of the cells with punctate GFP-LC3 fluorescence in GFP-positive cells. A minimum of 150 cells from 3 randomly selected fields was scored.

For series [5], the system named is PC-12 cells. Put plainly: MTT cytotoxicity assay. It is filed as cell-based, rat. To be noted: 0.039-100 μmol/L, 48 hours. The procedure:
Cell culture and cytotoxicity assay: The test compound of Onjisaponin B was dissolved in DMSO at a final concentration of 100 mmol/L and stored at −20° C. Cytotoxicity was assessed using the 3-(4,5-dimethylthiazol-2-yl) -2,5-diphenyltetrazolium bromide assay as described previously. PC-12, 4000 cells were seeded on 96-well plates per well. After overnight pre-incubation, the cells were exposed to different concentrations of Onjisaponin B (0.039-100 μmol/L) for 2 days. Subsequently, 10 μL of MTT reagents was added to each well and incubated at 37° C. for 4 hours followed by the addition of 100 μL solubilization buffer (10% SDS in 0.01 mol/L HCl) and overnight incubation. Absorbance at 585 nm was determined from each well the next day. For cell viability assay measured by crystal violet staining, PC-12 cells were incubated in 35 mm disc followed by the addition of Onjisaponin B at the indicated concentrations for 24 hours. The cells were then incubated with crystal violet for 10 minutes followed by a ddH2O wash. […] Cell viability was quantified by dissolving the stained cells in 10% acetic acid (200 μL/well). The colorimetric reading of the solute mixture was then determined by spectrophotometer at OD 560 nm The percentage of cell viability was calculated using the following formula: Cell viability (%)=Cells number treated/Cells number DMSO control×100. […]
Background: Tetrazolium assays rely on reduction of a dye to a coloured formazan, in cell work by metabolically active cells.

In series [6] the test system is PC-12 cells transfected with mutant huntingtin EGFP-HDQ74. The experiment in a line: MTT viability of PC-12 cells expressing mutant huntingtin. It is filed as cell-based, rat. To be noted: 25 μmol/L, 2 days. On the procedure: Cell cytotoxicity assay: Cytotoxicity was assessed using the 344,5-dimethylthiazol-2-yl)-2,5-diphenyltetrazolium bromide assay as described previously. PC-12 cells were transfected with or without mutant huntingtin EGFP-HDQ74 for 24 h. The PC-12 cells were then seeded on 96-well plates with 4000 cells per well and then exposed to the indicated concentrations of Onjisaponin B (25 μmol/L) for 2 days. Subsequently, 10 μL of MTT reagents was added to each well and incubated at 37° C. for 4 hours, followed by the addition of 100 μL solubilization buffer (10% SDS in 0.01 mol/L HCl) and overnight incubation. Absorbance at 585 nm was determined from each well on the next day. The percentage of cell viability was calculated using the following formula: Cell viability (%)=Cells number treated/Cells number DMSO control×100. Data was obtained from three independent experiments.

In the case of `COc1ccc(/C=C/C(=O)O[C@@H]2[C@H](O[C@@H]3O[C@@H](C)[C@H](O)[C@@H](O)[C@H]3O)[C@@H](O[C@@H]3O[C@@H](C)[C@H](O[C@@H]4OC[C@@H](O[C@@H]5O[C@H](CO)[C@H](O)[C@H](O)[C@H]5O)[C@H](O)[C@H]4O)[C@@H](O)[C@H]3O)[C@H](OC(=O)[C@]34CCC(C)(C)C[C@H]3C3=CC[C@@H]5[C@@]6(C)C[C@H](O)[C@H](O[C@@H]7O[C@H](CO)[C@@H](O)[C@H](O)[C@H]7O)[C@@](C)(C(=O)O)[C@@H]6CC[C@@]5(C)[C@]3(CO)CC4)O[C@@H]2C)cc1` [Onjisaponin B], the “Clearance of inclusions formed by EGFP-HDQ74 in PC12 cells” value in series [1] is given as “enhanced the clearance of inclusions formed by EGFP-HDQ74”. For the same compound, the “Oligomerization of α-synuclein (GFP fluorescent signal, flow analysis)” value in series [2] is reported as “inhibit the oligomerization of α-synuclein”. Further, in series [3], the “Clearance of myc-tagged mutant A53T α-synuclein” value was “accelerate the clearance”. In addition, in series [4] (Onjisaponin B 25 μM + 3-MA 5 mM), the “Onjisaponin B-induced GFP-LC3 puncta formation in the presence of 3-Methyladenine” value is given as “significant reduction”. In series [4] (Onjisaponin B 25 μM + compound C 5 μM), the “Onjisaponin B-induced GFP-LC3 puncta formation in the presence of AMPK inhibitor (compound C)” value is given as “significant reduction”. In addition, in series [5], the “Cytotoxicity in PC-12 cells (MTT assay)” value was “no significant cytotoxic effect; also recorded: no toxicity observed overtly”. Also, the “Toxicity in PC-12 cells expressing mutant huntingtin (cell viability, MTT)” value in series [6] is “reduced toxicity”.
